Test results as given in patent US7772227B2, “Tricyclic 1-[(indol-3-yl)carbonyl]piperazine derivatives as cannabinoid CB1 receptor agonists” (N.V. Organon, priority 2003, dated 2010).
Counter-ions that a name gives are not always drawn. Like-named read-outs stand apart in the source and are kept apart here.

How the values were obtained:
human CB1 receptor = molecular target: T1, human CB1 receptor (Homo sapiens, UniProt P21554); test: Efficacy and potency at the human CB1 receptor expressed in CHO cells (luciferase reporter gene); type: cell-based; conditions: 5 h incubation at 37° C.
T1 construct: expressed in transfected cells; host or cells: Chinese Hamster Ovary (CHO) cells
Protocol: Methods to determine receptor binding as well as in vitro biological activity of cannabinoid receptor modulators are well known in the art. In general, expressed receptor is contacted with the compound to be tested and binding or stimulation or inhibition of a functional response is measured.
Chinese Hamster Ovary (CHO) cells expressing the human CB1 receptor and a luciferase reporter gene were suspended in phenol red/serum free DMEM/F-12 nut mix containing penicillin/streptomycin (50 U/50 μg/ml) and fungizone (1 μg/ml) and seeded into 96 well plates at a density of 3×10^4 cells per well (100 μl final volume). Cells were incubated overnight (approx. 18 h at 37° C., 5% CO2/95% air) prior to assay.
The test compound (10 mM solution in dimethylsulfoxide) was diluted in F12 Nut Mix to give a range of stock solutions from 0.11 mM to 0.11 nM. The stock solutions (10 μl) were added directly to the relevant wells. The plates were incubated at 37° C. for 5 h to allow agonist-induced expression of the luciferase enzyme. Under subdued light, LucLite substrate (Packard; reconstituted as per manufacturer's instructions; 100 μl) was added to each well. Plates were covered with Top Seal and then incubated at room temperature for 5 minutes before counting on the Packard TopCount (single photon counting, 0.01 minute count time, 5 minute count delay).
A “best-fit” curve was fitted by a minimum sum of squares method to the plot of counts per second (CPS) against compound concentration (M) to obtain an EC50 value.

mice = test: Tail flick latency in mice; type: in vivo; conditions: Mus musculus, iv, administered intravenously, ED50 calculated at Tmax, read-out: ED50 (increase of tail flick latency)
Protocol: Mice were trained to sit still in a tail flick apparatus (Ugo Basile, Italy) whilst tail flick latency was measured. The tail was exposed to a focused beam of radiant heat at a point approximately 2.5 cm from the tip. Tail flick latency was defined as the interval between the appliance of the thermal stimulus and withdrawal of the tail. A 12 second cut-off was employed to prevent tissue damage. Four groups of eight mice were treated with vehicle or one of three doses of the test compound, administered intravenously (vehicle: saline 9 g/l; injection volume 10 ml/kg). Tail flick latency was measured before administration of the test compound and at regular intervals (typically 20, 40 and 60 minutes) after compound administration. The ED50 was calculated at Tmax.

[1] = CHO cells expressing human CB1 receptor and luciferase reporter gene, read-out: pEC50 (converted)
[2] = CHO cells expressing human CB1 receptor and luciferase reporter gene

T1 sequence (P21554 whole entry): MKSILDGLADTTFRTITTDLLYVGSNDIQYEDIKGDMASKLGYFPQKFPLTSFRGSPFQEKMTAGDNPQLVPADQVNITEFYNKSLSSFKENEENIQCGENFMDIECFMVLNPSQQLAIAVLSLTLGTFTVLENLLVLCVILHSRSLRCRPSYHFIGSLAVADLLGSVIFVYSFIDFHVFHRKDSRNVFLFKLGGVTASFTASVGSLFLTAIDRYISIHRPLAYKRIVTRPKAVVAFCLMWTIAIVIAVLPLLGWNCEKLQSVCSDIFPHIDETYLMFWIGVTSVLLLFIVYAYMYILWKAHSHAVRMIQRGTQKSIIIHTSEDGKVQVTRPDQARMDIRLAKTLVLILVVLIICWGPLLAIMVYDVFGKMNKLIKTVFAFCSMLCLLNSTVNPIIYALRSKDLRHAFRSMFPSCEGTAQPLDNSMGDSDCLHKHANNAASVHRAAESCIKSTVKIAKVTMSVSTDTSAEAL

Row | SMILES | EC50 (human CB1 receptor; [1]) [µM] | ED50 (mice) [µmol/kg] | pEC50 (human CB1 receptor; [2]) | other results
1 | CN1CCN(C(=O)c2cn3c4c(cccc24)CCC3C2CCCCC2)CC1 (single isomer, unassigned; (-)) [Example 16, (−)-(4-Cyclohexyl-5,6-dihydro-1-(4-methylpiperazin-1-ylcarbonyl)-4H-pyrrolo[3,2,1-ij]-quinoline hydrochloride salt] | 0.0251 |  |  | 
2 | O=C(c1cn2c3c(cccc13)OC[C@H]2C1CCCCC1)N1CCN2CCCC[C@H]2C1 [Example 2, (R)-3-Cyclohexyl-2,3-dihydro-6-[(S)-octahydro-2H-pyrido[1,2-a]pyrazin-2-ylcarbonyl]-pyrrolo[1,2,3-de]-1,4-benzoxazine hydrochloride salt] |  | < 5 |  | EC50 (human CB1 receptor; pEC50, CHO cells expressing human CB1 receptor and luciferase reporter gene): 0.01 µM
3 | CCN1CCN(C(=O)c2cn3c4c(cccc24)CCC3C2CCCCC2)CC1 (single isomer, unassigned; (+)) [Example 13, (+)-4-Cyclohexyl-5,6-dihydro-1-(4-ethylpiperazin-1-ylcarbonyl)-4H-pyrrolo[3,2,1-ij]-quinoline hydrochloride salt] | 0.0501 |  |  | 
4 | C[C@@H]1CN(C(=O)c2cn3c4c(cccc24)OC[C@H]3C2CCCCC2)C[C@H](C)N1C.Cl [Example 7, (R)-3-Cyclohexyl-2,3-dihydro-6-[(cis)-3,4,5-trimethylpiperazin-1-ylcarbonyl]pyrrolo[1,2,3-de]-1,4-benzoxazine hydrochloride salt] |  |  | 8.2 | 
5 | CCN1CCN(C(=O)c2cn3c4c(cccc24)CCC3C2CCCC2)CC1 (single isomer, unassigned; (-)) [Example 12B, (−)-4-Cylclopentyl-5,6-dihydro-1-(4-ethylpiperazin-1-ylcarbonyl)-4H-pyrrolo[3,2,1-ij]quinoline hydrochloride salt] | 0.0398 |  |  | 
6 | CCN1[C@H](C)CN(C(=O)c2cn3c4c(cccc24)OC[C@H]3C2CCCCC2)C[C@@H]1C.Cl [Example 8, (R)-3-Cyclohexyl-2,3-dihydro-6-[(cis)-3,5-dimethyl-4-ethylpiperazin-1-ylcarbonyl]-pyrrolo[1,2,3-de]-1,4-benzoxazine hydrochloride salt] |  |  | 8.4 | 
7 | CN1CCN(C(=O)c2cn3c4c(cccc24)CCC3C2CCCCC2)CC1 (single isomer, unassigned; (+)) [Example 14, (+)-(4-Cyclohexyl-5,6-dihydro-1-(4-methylpiperazin-1-ylcarbonyl)-4H-pyrrolo[3,2,1-ij]-quinoline hydrochloride salt] | 0.0794 | < 5 |  | 
8 | CCN1CCN(C(=O)c2cn3c4c(cccc24)CCC3C2CCCCC2)CC1 (single isomer, unassigned; (-)) [Example 15, (−)-(4-Cyclohexyl-5,6-dihydro-1-(4-ethylpiperazin-1-ylcarbonyl)-4H-pyrrolo[3,2,1-ij]quinoline hydrochloride salt] | 0.0316 | < 5 |  | 
9 | C[C@@H]1CN(C(=O)c2cn3c4c(cccc24)OC[C@H]3C2CCCCC2)C[C@H](C)N1CCO.Cl [Example 9, (R)-3-Cyclohexyl-2,3-dihydro-6-[(cis)-3,5-dimethyl-4-(2-hydroxyethyl)piperazin-1-ylcarbonyl]pyrrolo[1,2,3-de]-1,4-benzoxazine hydrochloride salt] |  |  | 8.2 | 
10 | CCN1CCN(C(=O)c2cn3c4c(cccc24)OC[C@H]3C2CCCCC2)CC1.Cl [Example 1, (R)-3-Cyclohexyl-2,3-dihydro-6-(4-ethylpiperazin-1-ylcarbonyl)pyrrolo[1,2,3-de]-1,4-benzoxazine hydrochloride salt] |  |  | 7.5 | 
11 | COCCN1[C@H](C)CN(C(=O)c2cn3c4c(cccc24)OC[C@H]3C2CCCCC2)C[C@@H]1C.Cl [Example 10, (R)-3-Cyclohexyl-2,3-dihydro-6-[(cis)-3,5-dimethyl-4-(2-methoxyethyl)piperazin-1-yl-carbonyl]pyrrolo[1,2,3-de]-1,4-benzoxazine hydrochloride salt] |  |  | 8.3 | 
12 | CN1CCN(C(=O)c2cn3c4c(cccc24)OC[C@H]3C2CCCCC2)CC1.Cl [Example 5C, (R)-3-Cyclohexyl-2,3-dihydro-6-[4-methylpirerazin-1-ylcarbonyl]pyrrolo[1,2,3-de]-1,4-benzoxazine hydrochloride salt] |  |  | 7.0 | 
13 | C[C@H]1CN(C(=O)c2cn3c4c(cccc24)OC[C@H]3C2CCCCC2)CCN1C.Cl [Example 4, (R)-3-Cyclohexyl-2,3-dihydro-6-[(S)-3,4-dimethylpiperazin-1-ylcarbonyl]pyrrolo[1,2,3-de]-1,4-benzoxazine hydrochloride salt] |  | < 5 | 7.8 | 
